Drawing on article PMC4505723 (Journal of the American Chemical Society, 2015), this text covers IC50 for two substances.

This assay deals with L. lactis HP cells. Nature of the assay: liquid media growth assays with L. lactis HP cells. In kind it is cell-based. The conditions noted are these: liquid media growth assay (Figure S4).

lacticin 481 [wt lacticin 481] gave a half-maximal inhibitory concentration (IC50) of 100 ± 25 nM.

nukacin ISK-1: the IC50 was 400 ± 80 nM.

As usually defined, the IC50 is the concentration that inhibits the measured activity by half. A higher IC50 goes with weaker potency in that assay.
